{"source": "patent US12023421B2", "about": "“Medical devices for continuous delivery of therapeutic agents” (Adenopaint LLC, priority 2019, dated 2024)", "key": {"Yucatan mini-pigs": {"system": "Yucatan mini-pigs", "experiment": "Acetylcholine-induced coronary vasoconstriction (no-reflow) in the pig (Example 6, second protocol)", "type": "in vivo", "settings": "0.3 to 1.0 mg/min infused into the LAD for 20 to 30 min; preliminary studies", "experimental": "Animal Studies: All porcine studies were approved by Institutional Animal Care and the Committee of Synchrony Labs LLC, NC. Yucatan mini pigs (25 to 30 Kg) were premeditated with Telazol (5 mg/Kg). Anesthesia was maintained with 1% isoflurane and supplemental oxygen to maintain a pH of 7.4±0.6. Animals received aspirin 300 mg orally for three days prior to the study and were anticoagulated throughout the procedure with heparin (150 units/kg) to maintain ACT greater than 300. Heart rate, EKG changes and blood pressure were monitored continuously utilizing leads I, AVF and AVL with a 6 F sheath in the left femoral artery. […] Coronary blood flow velocity (CFV) was measured utilizing a 0.014-inch Doppler flowwire (Combowire, Volcano Corporation, Rancho Cordova, CA, USA) and dedicated software. CFV was measured as a continuous average pulse wave velocity over 4 seconds and mean values were recorded every 60 seconds.\nIn the second protocol the ability of the wire to prevent and reverse intense vasoconstriction induced by intracoronary administration of acetylcholine (Ach) was evaluated. […] In other experiments, we evaluated whether an adenosine-releasing wire could prevent the NRF by placing the adenosine-loaded wire initially into the LAD. […]\nFor statistical analyses, data are expressed as mean±SEM. […]"}, "[1]": {"experiment": "Particle size stability of jet-milled adenosine in hydrogel (laser diffraction and optical microscopy)", "type": "physicochemical", "settings": "after one week in the hydrogel; particles less than 5 microns", "experimental": "Next, the inner drug layer was prepared. In this regard, a 20% w/w solution of PVA/PVP (99:1 mass ratio) in DI water was prepared and autoclaved for 1 hr while stirring. This yielded a supersaturated solution which was homogeneous and free of bubbles. Using a water bath, the temperature of the PVA/PVP solution was maintained at 65° C. In order to create a sufficient drug load on the wire, a 25% concentration of adenosine was used in the drug layer. Adenosine has poor solubility in water ([…]) and commercial adenosine has a mean particle size of 55 microns which would have compromised the lubricity of the wire. Utilizing a two-pass jet-milling process, the solid phase adenosine particles were reduced in size to less than 5 microns. Micronized adenosine was mixed in DI water, sonicated for 15 min and then added to the PVA/PVP mixture and the PVA/PVP/adenosine mixture was stirred until a homogeneous solution was obtained. […] Next, the guidewire coated with the PEG-silanol primer was coated with the adenosine-containing hydrogel. Multiple hydroxyl groups in the hydrogel form hydrogen bonds with multiple ether oxygens in the primer, thus creating an extensive network of hydrogen bonds between the drug-containing hydrogel layer and the primer layer (FIG. 14, Reaction 4)."}, "coronary flow velocity": {"system": "coronary flow velocity", "settings": "continuous infusion into the LAD at 50 μg/kg/min; previous studies; cited from earlier work"}, "[2]": {"experiment": "In vitro drug elution from coated guidewires in phosphate-buffered saline at 37° C. (UV 260 nm)", "type": "physicochemical", "experimental": "FIG. 4 illustrates representative time release of a therapeutic agent, adenosine, from the distal 10 cm of three guidewires with two coats of PVA/PVP polymer cured with 2 freeze/thaw cycles. The inner therapeutic coat was a 7.5% (w/w) of PVA/PVP with 1.5 mg of adenosine added as described in the application. The outer barrier layer was made of 10.0% (w/w) of PVA/PVP. The guidewire was placed in a beaker containing phosphate-buffered saline at 37° C. that was constantly stirred with a magnetic device. Samples were taken periodically from the beaker and analyzed for adenosine amount by UV spectrophotometry (absorption at 260 nm). Note the complete elution of the drug in a curvilinear fashion over 60 minutes.\nNote that elution was more rapid with greater than 90% eluted over 20 minutes.\nFIG. 6 illustrates a representative example of an extremely rapid elution of another drug diltiazem utilizing a polymer with a ratio of PVA/PVAC and two freeze/thaw cycles. The drug was completely eluted over 10 minutes.\nUtilizing the same protocol as Example 1, the freeze/thaw cycles were increased to 3-8 and the barrier concentration was increased to 15.0% (w/w). Utilizing adenosine as the prototype therapeutic agent the elution profile was increased with the majority of drug elution occurring in 30 min."}, "[3]": {"settings": "cited from earlier work"}, "[4]": {"experiment": "In vitro release studies in 0.9% saline at 37° C. (Example 6)", "type": "physicochemical", "experimental": "In vitro release studies were performed in 0.9% saline rather than in plasma or blood because adenosine has a short half-life (seconds) in the latter two media making detection difficult. Tubes containing 15 ml saline were maintained at 37° C. and 10 cm of the spaced coiled section of the guidewire was placed serially in tubes for 0 to 5, 5 to 10, 10 to 20, 20 to 30, 30 to 40, 40 to 50, and 50 to 60 minutes. One ml samples were then taken from the tube to measure the concentration of adenosine by spectrophotometry (Jackson E K, Mi Z, Koehler M T, Carcillo J A Jr, Herzer W A. Injured erythrocytes release adenosine deaminase into the circulation. J Pharmacol Exp Ther 1996; 279: 1250-60)."}, "[5]": {"settings": "in plasma or blood; cited from earlier work"}}, "data": [{"smiles": "CC(=O)OCC[N+](C)(C)C", "note": "[Ach, acetylcholine]", "values": [{"measurement": "reduction in CBFV", "setting": "Yucatan mini-pigs", "value": "~80", "unit": "%"}]}, {"smiles": "Nc1ncnc2c1ncn2[C@@H]1O[C@H](CO)[C@@H](O)[C@H]1O", "note": "[adenosine, Adenosine]", "values": [{"measurement": "particle size stability in the hydrogel", "setting": "[1]", "value": "stable"}, {"measurement": "increase in CFV", "setting": "coronary flow velocity", "value": "approximately 250%"}, {"measurement": "time in which the majority of drug elution occurred", "setting": "[2]; Example 2, protocol of Example 1 with 3-8 freeze/thaw cycles and barrier concentration 15.0% (w/w)", "value": 30, "unit": "min"}, {"measurement": "time of complete elution of the drug from guidewire", "setting": "[2]; FIG. 4, distal 10 cm of guidewires, inner coat 7.5% (w/w) PVA/PVP with 1.5 mg adenosine, outer barrier 10.0% (w/w) PVA/PVP, 2 freeze/thaw cycles, curvilinear", "value": 60, "unit": "min"}, {"measurement": "drug eluted over 20 minutes", "setting": "[2]; FIG. 5, 8 freeze/thaw cycles, polymer 10% inner and 15% outer layer", "value": "greater than 90%"}, {"measurement": "release profile", "setting": "[2]; FIG. 7, guidewires coated with polymer mixture of 3:1 and 1:1 ratios of PVAC to PVA", "value": "optimal for a typical coronary interventional procedure"}, {"measurement": "solubility in water", "setting": "[3]", "value": 80, "unit": "mg/mL"}, {"measurement": "time by which most of the remainder was released", "setting": "[4]; Example 6 guidewires", "value": "≤ 40", "unit": "min"}, {"measurement": "total amount of released adenosine", "setting": "[4]; Example 6 guidewires (PVA/PVP drug layer, PVA/PVAc 1:3 barrier), over 60 min", "value": "2.7±0.2 mg/10 cm length of wire"}, {"measurement": "adenosine released in the first 20 min", "setting": "[4]; Example 6 guidewires, relative to 60-min timepoint", "value": "approximately 60%"}, {"measurement": "half-life", "setting": "[5]", "value": "seconds"}]}, {"smiles": "COc1ccc([C@@H]2Sc3ccccc3N(CCN(C)C)C(=O)[C@@H]2OC(C)=O)cc1", "note": "[diltiazem]", "values": [{"measurement": "time of complete elution of the drug from guidewire", "setting": "[2]; FIG. 6, polymer with a ratio of PVA/PVAC, two freeze/thaw cycles", "value": 10, "unit": "min"}]}]}
